# pIC50: −log10 of the molar value.
# Biological target: T1, human Cot/Tpl2 kinase (Homo sapiens, UniProt P41279)
# T1 construct: human Cot/Tpl2 kinase construct encoding residues 30-398; 6His (N); made in house; host or cells: Sf9 insect cells, baculovirus system (BD Biosciences)
# Test: Tpl2/Cot kinase assay: GST-MEK1 phosphorylation detected by ELISA (DELFIA Eu)
# Assay type: biochemical
# Conditions: 0.4 nM Tpl2, 35 nM GST-MEK1, 50 uM ATP, 1 h at 30° C.
# Procedure, shortened: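 His-tagged human Tpl2 from Sf9 cells, Ni-affinity and size-exclusion purified (monomer). 0.4 nM Tpl2 with 35 nM GST-MEK1, 50 uM ATP, MOPS pH 7.2, 1% DMSO, 1 h at 30° C; EDTA stop. MEK1 Ser217/221 phosphorylation detected by anti-phospho-MEK1 and Eu-labelled secondary ELISA; IC50 fitted.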
# T1 sequence (P41279 30-398): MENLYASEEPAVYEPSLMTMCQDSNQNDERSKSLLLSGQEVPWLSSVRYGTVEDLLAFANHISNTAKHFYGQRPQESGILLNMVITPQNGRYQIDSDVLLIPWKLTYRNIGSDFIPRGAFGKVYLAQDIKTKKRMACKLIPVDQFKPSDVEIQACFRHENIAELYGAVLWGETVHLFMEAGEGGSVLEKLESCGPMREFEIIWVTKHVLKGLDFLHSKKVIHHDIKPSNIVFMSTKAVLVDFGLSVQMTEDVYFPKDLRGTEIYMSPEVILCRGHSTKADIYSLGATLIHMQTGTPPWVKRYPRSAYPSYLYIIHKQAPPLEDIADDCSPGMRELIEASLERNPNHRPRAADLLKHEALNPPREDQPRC
row,SMILES,pIC50
1,"N#Cc1cnc2c(F)cc(NCc3cnc[nH]3)cc2c1Nc1ccc(F)c(Cl)c1 [Example 265, 4-[(3-Chloro-4-fluorophenyl)amino]-8-fluoro-6-[(1H-imidazol-5-ylmethyl)amino]quinoline-3-carbonitrile]",7.68
2,"Cn1cc(Cl)c(CNc2ccc3ncc(C#N)c(Nc4ccc(F)c(Cl)c4)c3c2)n1 [Example 135, 6-((4-chloro-1-methyl-1H-pyrazol-3-yl)methylamino)-4-(3-chloro-4-fluorophenylamino)quinoline-3-carbonitrile]",< 4.40
3,"Cc1cc2ncc(C#N)c(Nc3ccc(F)c(Cl)c3)c2cc1NCc1cccnc1 [Example 225, 4-[(3-Chloro-4-fluorophenyl)amino]-7-methyl-6-[(pyridin-3-ylmethyl)amino]quinoline-3-carbonitrile]",< 4.40
4,"COc1c(C)cnc(CNc2cc(Cl)c3ncc(C#N)c(Nc4ccc(F)c(Cl)c4)c3c2)c1C [Example 276, 8-chloro-4-[(3-chloro-4-fluorophenyl)amino]-6-{[(4-methoxy-3,5-dimethylpyridin-2-yl)methyl]amino}quinoline-3-carbonitrile]",5.33
5,"CS(=O)(=O)Nc1cccc(CNc2ccc3ncc(C#N)c(Nc4ccc(F)c(Cl)c4)c3c2)c1 [Example 18, N-(3-{[4-(3-Chloro-4-fluoro-phenylamino)-3-cyano-quinolin-6-ylamino]-methyl}-phenyl)-methanesulfonamide]",6.55
6,"Cc1nc(CNc2cc(Cl)c3ncc(C#N)c(Nc4ccc(F)c(Cl)c4)c3c2)cn1CC(N)=O [Example 191, 2-(4-((8-chloro-4-(3-chloro-4-fluorophenylamino)-3-cyanoquinolin-6-ylamino)methyl)-2-methyl-1H-imidazol-1-yl)acetamide]",7.19
7,"N#Cc1cnc2c(C(F)(F)F)cc(NCc3cccc(Br)n3)cc2c1Nc1ccc(F)c(Cl)c1 [Example 259, 6-{[(6-Bromopyridin-2-yl)methyl]amino}-4-[(3-chloro-4-fluorophenyl)amino]-8-(trifluoromethyl)quinoline-3-carbonitrile]",< 4.40
8,"C[C@H](Nc1ccc2ncc(C#N)c(Nc3ccc(F)c(Cl)c3)c2c1)c1ccccn1 [Example 173, (S)-4-(3-chloro-4-fluorophenylamino)-6-(1-(pyridin-2-yl)ethylamino)quinoline-3-carbonitrile]",< 4.40
9,"Cn1ccnc1CNc1cc(F)c2ncc(C#N)c(Nc3ccc(F)c(Cl)c3)c2c1 [Example 268, 4-[(3-Chloro-4-fluorophenyl)amino]-8-fluoro-6-{[(1-methyl-1H-imidazol-2-yl)methyl]amino}quinoline-3-carbonitrile]",7.92
10,"N#Cc1cnc2c(CC(O)CO)cc(NCc3cnc[nH]3)cc2c1Nc1ccc(F)c(Cl)c1 (stereo not shown) [Example 314, 4-[(3-chloro-4-fluorophenyl)amino]-8-(2,3-dihydroxypropyl)-6-[(1H-imidazol-5-ylmethyl)amino]quinoline-3-carbonitrile]",6.04
11,"N#Cc1cnc2c(CCC(=O)CO)cc(N)cc2c1Nc1ccc(F)c(Cl)c1 [Example 309, 6-amino-4-[(3-chloro-4-fluorophenyl)amino]-8-(4-hydroxy-3-oxobutyl)quinoline-3-carbonitrile]",5.15
12,"N#Cc1cnc2c(Br)cc(NCc3cnc(-c4ccccc4)[nH]3)cc2c1Nc1ccc(F)c(Cl)c1 [Example 106, 8-bromo-4-(3-chloro-4-fluorophenylamino)-6-((2-phenyl-1H-imidazol-5-yl)methylamino)quinoline-3-carbonitrile]",5.23
13,"N#Cc1cnc2c(Cl)cc(NCc3cn(CC(=O)NCc4ccccn4)nn3)cc2c1Nc1ccc(F)c(Cl)c1 [Example 320, 2-(4-((8-chloro-4-(3-chloro-4-fluorophenylamino)-3-cyanoquinolin-6-ylamino)methyl)-1H-1,2,3-triazol-1-yl)-N-(pyridin-2-ylmethyl)acetamide]",8.25
14,"N#Cc1cnc2c(Cl)cc(NCc3cn4ccccc4n3)cc2c1Nc1ccc(F)c(Cl)c1 [Example 187, 6-((H-imidazo[1,2-a]pyridin-2-yl)methylamino)-8-chloro-4-(3-chloro-4-fluorophenylamino)quinoline-3-carbonitrile]",6.89

# Same assay, conditions: Table 2; Tpl2/Cot kinase, GST-MEK1 substrate, 50 uM ATP
row,SMILES,pIC50
1,N#Cc1cnc2c(Cl)cc(NC[C@@H]3CCCN3)cc2c1Nc1ccc(F)c(Cl)c1 [Example 619],< 5.52
2,CONC(=O)CNc1cc(Cl)c2ncc(C#N)c(Nc3ccc(F)c(Cl)c3)c2c1 [Example 472],6.80
3,CN1CCC(Cn2cc(CNc3cc(Br)c4ncc(C#N)c(Nc5ccc(F)c(Cl)c5)c4c3)nn2)CC1 [Example 499],7.92
4,N#Cc1cnc2c(Cl)cc(NCC(CO)c3ccncc3)cc2c1Nc1ccc(F)c(Cl)c1 (stereo not shown) [Example 637],< 5.52
5,Cn1ccnc1CNc1ccc2ncc(C#N)c(NC(C)(C)C)c2c1 [Example 407],5.29
6,N#Cc1cnc2ccc(NCCN3CCOCC3)cc2c1Nc1ccc2[nH]ccc2c1 [Example 356],< 5.00
7,COCCCc1nc[nH]c1CNc1cc(Br)c2ncc(C#N)c(Nc3ccc(F)c(Cl)c3)c2c1 [Example 507],7.21
8,CCc1[nH]cnc1CNc1cc(Cl)c2ncc(C#N)c(Nc3ccc(F)c(Cl)c3)c2c1 [Example 476],7.80
9,CC1CC(C)CN(CCCn2cc(CNc3cc(Cl)c4ncc(C#N)c(Nc5ccc(F)c(Cl)c5)c4c3)nn2)C1 (stereo not shown) [Example 610],6.82
10,N#Cc1cnc2c(Br)cc(NCc3cn(CCO)nn3)cc2c1Nc1ccc(F)c(Cl)c1 [Example 510],7.55
11,CS(=O)(=O)N1CCC(n2cc(CNc3cc(Br)c4ncc(C#N)c(Nc5ccc(F)c(Cl)c5)c4c3)nn2)CC1 [Example 525],8.96
12,COCCn1cc(CNc2cc(Br)c3ncc(C#N)c(Nc4ccc(F)c(Cl)c4)c3c2)nn1 [Example 522],7.74
13,Cn1nc(CNc2cc(Br)c3ncc(C#N)c(Nc4ccc(F)c(Cl)c4)c3c2)cc1-c1ccccc1 [Example 453],< 4.40
14,N#Cc1cnc2ccc(NCCN3CCOCC3)cc2c1Nc1cccc(Cl)c1 [Example 350],6.16
15,Cn1cc(CNc2ccc3ncc(C#N)c(Nc4ccc(F)c(F)c4)c3c2)ccc1=O [Example 343],5.98
16,N#Cc1cnc2ccc(NCc3cnc[nH]3)cc2c1NC1CCCCCC1 [Example 400],6.31
17,CNCCn1cc(CNc2cc(Br)c3ncc(C#N)c(Nc4ccc(F)c(Cl)c4)c3c2)nn1 [Example 512],7.42

# Same assay, conditions: Tpl2/Cot kinase, GST-MEK1 substrate, 50 uM ATP
row,SMILES,pIC50
1,CN(C)CCCNC(=O)CNc1cc(Cl)c2ncc(C#N)c(Nc3ccc(F)c(Cl)c3)c2c1 [Example 775],< 5.52
2,N#Cc1cnc2c(Cl)cc(NCc3cn(CCCNC(=O)C4CC4)nn3)cc2c1Nc1ccc(F)c(Cl)c1 [Example 912],8.72
3,COCCOCCn1cc(CNc2cc(Br)c3ncc(C#N)c(Nc4ccc(F)c(Cl)c4)c3c2)nn1 [Example 743],7.00
4,CCN1CCCCC1CNc1cc(Cl)c2ncc(C#N)c(Nc3ccc(F)c(Cl)c3)c2c1 (stereo not shown) [Example 870],5.71
5,N#Cc1cnc2c(Br)cc(NCc3cn(C4CN5CCC4CC5)nn3)cc2c1Nc1ccc(F)c(Cl)c1 (stereo not shown) [Example 838],8.00
6,N#Cc1cnc2c(Cl)cc(NCc3ccncc3)cc2c1Nc1ccc(F)c(Cl)c1 [Example 845],7.66
7,N#Cc1cnc2c(Br)cc(NCc3cn(CCc4ccncc4)nn3)cc2c1Nc1ccc(F)c(Cl)c1 [Example 919],8.89
8,N#Cc1cnc2ccc(NC3CCN(Cc4ccccc4)CC3)cc2c1Nc1ccc(F)c(Cl)c1 [Example 657],5.77
9,CCNC(=O)N1CCC[C@@H]1Cn1cc(CNc2cc(Cl)c3ncc(C#N)c(Nc4ccc(F)c(Cl)c4)c3c2)nn1 [Example 899],9.22
10,N#Cc1cnc2c(Br)cc(NCc3cn(CCO)nn3)cc2c1Nc1ccc(F)c(Cl)c1 [Example 686],7.55
11,CC(C)(C)CN1CCC(n2cc(CNc3cc(Br)c4ncc(C#N)c(Nc5ccc(F)c(Cl)c5)c4c3)nn2)CC1 [Example 715],6.72
12,CNCCn1cc(CNc2cc(Br)c3ncc(C#N)c(Nc4ccc(F)c(Cl)c4)c3c2)nn1 [Example 684],7.42
13,CN1CCN(CCCn2cc(CNc3cc(Br)c4ncc(C#N)c(Nc5ccc(F)c(Cl)c5)c4c3)nn2)CC1 [Example 795],7.54
14,COCCNC(=O)Cn1cc(CNc2cc(Cl)c3ncc(C#N)c(Nc4ccc(F)c(Cl)c4)c3c2)nn1 [Example 816],7.82
15,N#Cc1cnc2c(Br)cc(NCc3cn(CCc4ccccn4)nn3)cc2c1Nc1ccc(F)c(Cl)c1 [Example 728],8.47
16,N#Cc1cnc2c(Cl)cc(NCc3cn(Cc4ccccn4)cn3)cc2c1Nc1ccc(F)c(Cl)c1 [Example 786],7.39
17,CC(=O)N1CCCCC1CNc1cc(Cl)c2ncc(C#N)c(Nc3ccc(F)c(Cl)c3)c2c1 (stereo not shown) [Example 875],6.21
18,COCCNCC(=O)N1CCCC(CNc2cc(Cl)c3ncc(C#N)c(Nc4ccc(F)c(Cl)c4)c3c2)C1 (stereo not shown) [Example 904],6.59

# Same assay, conditions: Tpl2/Cot kinase, GST-MEK1 substrate, 50 uM ATP, 1 h at 30° C.; Table 2
row,SMILES,pIC50
1,CC(C)N1CCC(O)(c2cncc(CNc3cc(Cl)c4ncc(C#N)c(Nc5ccc(F)c(Cl)c5)c4c3)c2)CC1 [Example 1033],6.30
2,N#Cc1cnc2c(Cl)cc(NCc3cn(CCN4CCCCCC4)nn3)cc2c1NC1CCC2(CCCCC2)CC1 [Example 975],< 5.52
3,CC(C)N1CC=C(c2cncc(CNc3cc(Cl)c4ncc(C#N)c(Nc5ccc(F)c(Cl)c5)c4c3)c2)CC1 [Example 1054],5.89
4,CN(C)CC#Cc1csc(CNc2cc(Cl)c3ncc(C#N)c(Nc4ccc(F)c(Cl)c4)c3c2)c1 [Example 1023],5.94
5,N#Cc1cnc2c(Cl)cc(NCc3cn(C4CCN(CC5CC5)CC4)nn3)cc2c1Nc1ccc(F)c(Cl)c1 [Example 1027],8.10
6,CN(C)CCCc1csc(CNc2cc(Cl)c3ncc(C#N)c(Nc4ccc(F)c(Cl)c4)c3c2)c1 [Example 1022],6.01

# Source: patent US20060264460A1 (Wyeth, priority 2005, published 2006)
